Measured values from US20230346779A1, “DOSAGE FORM COMPOSITIONS COMPRISING AN INHIBITOR OF BTK AND MUTANTS THEREOF” (Newave Pharmaceutical Inc., priority 2020, published 2023).

What was measured:
[1] = Stability of HCl salt at different temperatures for 8 hours; assay type: physicochemical
Method: The stability of a Compound 2 HCl salt at different temperatures for 8 hours is shown below. The initial purity at TO is 96.5%. […] Similar observation was also made for several other compounds of the invention.

[2] = Solubility of free base in buffers of varying pH; assay type: physicochemical
Method: The solubility of a typical API (i.e., Compound 2 as disclosed herein) in free base form was evaluated in buffers of varying pH.

Row | Purity (%) at 8 h ([1]; 50° C., 8 hours) [%] | Purity (%) at 8 h ([1]; 80° C., 8 hours) [%] | Purity (%) at 8 h ([1]; 100° C., 8 hours) [%] | stability assessment of HCl salt ([1]; different temperatures, 8 hours) | initial purity ([1]; stability study, at TO (start)) [%] | Ave. Conc. ([2]; 0.01N HCl) [mg/mL] | Ave. Conc. ([2]; Water) [mg/mL] | Ave. Conc. ([2]; pH 2.0) [mg/mL] | Ave. Conc. ([2]; pH 3.0) [mg/mL] | Ave. Conc. ([2]; pH 4.5) [mg/mL] | Ave. Conc. ([2]; pH 6.8) [mg/mL] | SMILES
1 | 95.7 | 90.1 | 84.7 | not sufficiently stable | 96.5 |  |  |  |  |  |  | C=CC(=O)Nc1cc(Nc2nc(-c3ccnc(N4CCn5c(cc6c5CC(C)(C)C6)C4=O)c3CO)cn(C)c2=O)ccc1N1CCN(C2CCOCC2)C[C@@H]1C.Cl [Compound-2 HCl, N-(5-[[6-(2-[4,4-dimethyl-9-oxo-1,10-diazatricyclo[6.4.0.0^[2,6]]dodeca-2(6),7-dien-10-yl]-3-(hydroxymethyl)pyridin-4-yl)-4-methyl-3-oxopyrazin-2-yl]amino]-2-[(2S)-2-methyl-4-(oxan-4-yl)piperazin-1-yl]phenyl)prop-2-enamide hydrochloride]
2 |  |  |  |  |  | 55.52 | 0.09 | 9.67 | 2.07 | 1.81 | 0.02 | C=CC(=O)Nc1cc(Nc2nc(-c3ccnc(N4CCn5c(cc6c5CC(C)(C)C6)C4=O)c3CO)cn(C)c2=O)ccc1N1CCN(C2CCOCC2)C[C@@H]1C [Compound 2, N-(5-[[6-(2-[4,4-dimethyl-9-oxo-1,10-diazatricyclo[6.4.0.0^[2,6]]dodeca-2(6),7-dien-10-yl]-3-(hydroxymethyl)pyridin-4-yl)-4-methyl-3-oxopyrazin-2-yl]amino]-2-[(2S)-2-methyl-4-(oxan-4-yl)piperazin-1-yl]phenyl)prop-2-enamide]
